“Also recorded” adds a separate entry of the source.
Tests used:
Flavobacterium IR1 = assay: Theophylline toxicity assay on growth; assay type: cell-based; conditions: 24 hours at 25° C.
Protocol: Because theophylline uptake from IR1 appears to be a prerequisite, a toxicity assay was carried out on the growth of IR with varying theophylline concentrations ([…]) grown for 24 hours at 25° C. […] The arrow indicates the time when theophylline was added to the medium. […] Therefore, 2 mM of theophylline was used for inducing the intron splicing in following experiments.

LacZa of E. coli MG1655 = assay: FnCas12a targeting assay with Tagged-T4 td intron variants (CFU drop plating); assay type: cell-based; conditions: T crRNA, both induced and non-induced selective media
Excerpt: Four different intron variants (as shown previously in FIG. 8), referred to as “Tag1”, “Tag2”, etc. (Tag1: −4P, −5P, −6P; Tag2: −4W, […] −4W, −5W, −6P; Tag4: −4M, −5P, −6P) are inserted directly after the start codon of the GOI (FnCas12a gene). The 5′ exon sequences of the four different tags are indicated: Tag1: TCCtcaGGT (SEQ ID NO: 7); Tag2: TCCtcgGGT (SEQ ID NO: 8); Tag3: TCCttgGGT (SEQ ID NO: 9); Tag4: TCCtctGGT (SEQ ID NO: 10). The 3′ exon sequence is conserved amongst the 4 different tags and indicated as CTA (SEQ ID NO: 12). The amino acids corresponding to the Tag sequences are indicated with capital bold letters above the Tagged-introns. Intron-less (wild-type) FnCas12a was used as a reference for comparison. Efficiency of targeting of the different Tagged-T4 td intron variants was assessed by using either a LacZa targeting (T) or a non-targeting (NT) crRNA and by comparing the amount of colony forming units (CFUs) of transformed E. coli MG1655 per μg of plasmid used (CFUs μg^−1). CFU was determined by the number of colonies observed.
Electrocompetent E. coli MG1655 were transformed (2.5 kV, 200 Ω, 25 μF) with 10 ng μL^−1 of the respective plasmid and recovered for 1 hour in 500 μL LB medium [10 g L^−1 tryptone (Oxoid), 5 g L^−1 yeast extract (BD), 10 g L^−1 NaCl (Acros)] at 37° C. Then, the recovered culture was serially diluted and drop plated on selective (50 μg mL^−1 kanamycin) LB agar plates in the presence or absence of 2 mM theophylline. The agar plates were incubated at 30° C. for 24 hours and the CFUs were counted.
E. coli MG1655 was transformed with a series of plasmids (listed in Table 4) and serially diluted and drop plated on selective (kanamycin) LB media with or without 2 mM theophylline. […] The effect of the CFU reduction was more apparent for the Tag4-intron where colonies could only be observed at the 10° dilution, followed by Tag3-intron (10^−1) then Tag2-intron (10^−2) and finally Tag1-intron ([…]).

[1] = test system: LacZ gene of E. coli MG1655; assay: SIBR-Cas genome editing (HR and CRISPR-Cas counterselection) of LacZ; assay type: cell-based
Excerpt: For efficient genome editing in bacteria, HR should precede CRISPR-Cas counterselection. To assess whether tight control over CRISPR-Cas targeting could bolster the efficiency of CRISPR-Cas mediated genome editing by allowing more time for HR to occur, we used SIBR-Cas and targeted the LacZ gene of E. coli MG1655 for knock-out through HR and CRISPR-Cas counterselection using a blue/white screening colony assay. To facilitate HR, we added 500 bp up- and down-stream homology arms to the plasmids expressing the four SIBR-Cas (Int1-4) and WT-FnCas12a variants that target the LacZ gene. After 1 hour recovery, we induced the expression of the SIBR-Cas variants to counterselect the WT from the mutant colonies.
Since disruption of LacZ can also be achieved through non-HR mediated approaches (spontaneous mutations or occasional error-prone DNA repair following DNA cleavage by Cas12a), not all gene deletions can be screened phenotypically. Therefore, we repeated our experiment, but X-gal was omitted from the medium to eliminate the possibility of false-positives. Randomly selected colonies that were obtained were screened by PCR for LacZ deletion showing a 0%, 0%, 29% and 38% editing efficiency for Int1, Int2, Int3 and Int4 SIBR-Cas variants, respectively (FIG. 24C). […] The observed decrease in editing efficiency (compared to the blue/white screening) might be attributed to spontaneous LacZ mutations that escape CRISPR-Cas counterselection. Nevertheless, a high editing efficiency (38%) was observed when SIBR-Cas Int4 was used without the use of recombinases or any other complex systems.

EndA of P. putida = assay: FnCas12a targeting assay with Tagged-T4 td intron variants in P. putida; assay type: cell-based, Pseudomonas putida; conditions: media with or without theophylline
Protocol: Plasmids bearing the four T4 td intron-FnCas12a or the intron-less FnCas12a and an EndA T or an NT crRNA were transformed to P. putida and the targeting efficiency was assessed by comparing the CFUs μg^−1 in the presence or absence of the theophylline inducer.
In more detail, electrocompetent P. putida cells were transformed (2.5 kV, 200 Ω, 25 μF) with 200 ng plasmid and recovered in 1 ml LB for 2 hours at 30° C. Then, the culture was serially diluted and drop plated on selective (50 μg mL^−1 kanamycin) LB agar plates in the presence or absence of 2 mM theophylline. The agar plates were incubated at 30° C. for 24 hours and the CFUs were counted.
P. putida was transformed with a series of plasmids (listed in Table 6) and serially diluted and drop plated on selective (kanamycin) LB media with or without 2 mM theophylline. […] However, for P. putida, the effect of induction was more apparent than E. coli as no CFUs could be observed for transformants bearing the T crRNA and plated on selective media with theophylline. […] Collectively, the Tagged-intron constructs work efficiently in P. putida and can be used for genome engineering.

Compound | growth of IR1 (Flavobacterium IR1; 5 and 10 mM of theophylline) | growth of IR1 (Flavobacterium IR1; theophylline concentration of up to 2 mM) | CFUs (LacZa of E. coli MG1655) | colonies obtained ([1]; LacZ targeting) | unbiased editing efficiency (LacZ deletion by PCR of randomly selected colonies) ([1]; X-gal omitted from the medium) | editing efficiency: percentage of white colonies from total CFUs mL-1 ([1]; blue/white screening, LacZ targeting, induced after 1 hour recovery) | CFUs (EndA of P. putida)
Cn1c(=O)c2[nH]cnc2n(C)c1=O [Theophylline, theophylline] | decreased the growth | did not affect significantly the growth |  |  |  |  | 
WT-FnCas12a: Intron-less (wild-type) FnCas12a used as a reference for comparison [reference compound] |  |  | complete elimination of CFUs | no colonies; also recorded: did not yield any colonies | 0% | 0% | did not have any CFUs

— patent publication US20240026383A1 (priority 2020, published 2024)
